Assays:
MMTV (M10) promoter = assay: High-throughput luciferase reporter assay, MMTV promoter (Screen III); assay type: cell-based, mouse; details: M10 cells, 6 hours; for FOLD INHIBITION RELATIVE TO SOLVENT CONTROL, MMTV: Screen III inhibitors; for FOLD INDUCTION RELATIVE TO SOLVENT CONTROL, MMTV: Screen III activators
Procedure: pMluci and pSV2Neo, an antibiotic resistance plasmid (112), were co-transfected into NIH/3T3 mouse fibroblast cells using the calcium phosphate precipitation method (103) with a commercially available kit (Pharmacia, Piscataway N.J.). Two days later, cells were transferred to media containing 0.4 mg/ml G418 and were grown for an additional 10-14 days. G418-resistant clones were isolated by standard methods. Once sufficient cell numbers were obtained, clones were analyzed based on several criteria: constitutive luciferase production, induction of luciferase expression by dexamethasone (1 μm, Sigma, St. Louis, Mo.), satisfactory attachment to microtiter plates used in the high-throughput screen and acceptable standard deviation in multiple luciferase expression assays (see below for assay protocol). This analysis was carried out using the luciferase assay conditions described above. Of the clones which satisfied the above criteria for the high throuphput screen, one clone, M10, was selected for use.

[1] = tested on: human G-CSF (G21) promoter; assay: High-throughput luciferase reporter assay, G-CSF promoter (Screen III); details: G21 cells, 6 hours; for FOLD INHIBITION RELATIVE TO SOLVENT CONTROL, GCSF: Screen III inhibitors; for FOLD INDUCTION RELATIVE TO SOLVENT CONTROL, GCSF: Screen III activators
[2] = tested on: human growth hormone (532) promoter; assay: High-throughput luciferase reporter assay, human Growth Hormone promoter (Screen III); assay type: cell-based; details: 532 cells, 6 hours; for FOLD INHIBITION RELATIVE TO SOLVENT CONTROL, hGH: Screen III inhibitors; for FOLD INDUCTION RELATIVE TO SOLVENT CONTROL, hGH: Screen III activators

| Compound | FOLD INHIBITION RELATIVE TO SOLVENT CONTROL, MMTV (MMTV (M10) promoter) [fold] | FOLD INHIBITION RELATIVE TO SOLVENT CONTROL, GCSF [1] [fold] | FOLD INHIBITION RELATIVE TO SOLVENT CONTROL, hGH [2] [fold] | FOLD INDUCTION RELATIVE TO SOLVENT CONTROL, MMTV (MMTV (M10) promoter) [fold] | FOLD INDUCTION RELATIVE TO SOLVENT CONTROL, GCSF [1] [fold] | FOLD INDUCTION RELATIVE TO SOLVENT CONTROL, hGH [2] [fold] |
| --- | --- | --- | --- | --- | --- | --- |
| O=S(=O)(O)c1ccc(-c2nnc(-c3ccnc(-c4nnc(-c5ccc(S(=O)(=O)O)cc5)c(-c5ccc(S(=O)(=O)O)cc5)n4)c3)nc2-c2ccc(S(=O)(=O)O)cc2)cc1 [compound 1604] | 0.97 | 0.77 | 5.00 |  |  |  |
| C(=Cc1ccccn1)c1ccccn1 [compound 1640] | 0.59 | 0.79 | 5.00 |  |  |  |
| c1ccc(-c2nccnc2-c2ccccn2)nc1 [compound 1641] | 0.60 | 0.83 | 5.55 |  |  |  |
| O=S(=O)(O)c1ccc(-c2ccnc(-c3nnc(-c4ccc(S(=O)(=O)O)cc4)c(-c4ccc(S(=O)(=O)O)cc4)n3)c2)cc1 [compound 1648] | 1.00 | 0.86 | 7.69 |  |  |  |
| COC(=O)CP(=O)(OCC(F)(F)F)OCC(F)(F)F [compound 1651] | 0.70 | 0.69 | 3.57 |  |  |  |
| O=C(O)c1cc(C(F)(F)F)ccc1C(F)(F)F [compound 1655] | 0.81 | 0.54 | 4.76 |  |  |  |
| OCC1CC2C3CC(CO)C(C3)C2C1 (stereo not drawn) [compound 1678] |  |  |  | 0.89 | 0.36 | 7.08 |
| N#Cc1cccc(Br)c1 [compound 1703] | 0.90 | 0.76 | 10.00 |  |  |  |
| N#Cc1ccc(Br)cc1 [compound 1704] | 0.94 | 0.77 | 4.16 |  |  |  |
| O=C(c1ccccc1)c1ccc(Br)cc1 [compound 1705] | 0.62 | 0.54 | 14.28 |  |  |  |
| Cc1cc(=O)oc2c(CN(CC(=O)O)CC(=O)O)c(O)ccc12 [compound 1712] | 0.94 | 0.74 | 8.33 |  |  |  |
| CCOC(=O)c1c[nH]c(=S)[nH]c1=O [compound 1740] |  |  |  | 0.87 | 0.74 | 17.77 |
| N[C@@H](CCCCNC(=O)OCc1ccccc1)C(=O)O [compound 1747] |  |  |  | 0.86 | 0.78 | 6.16 |
| Cc1cc(=O)oc2cc(OCC(=O)O)ccc12 [compound 1764] | 0.82 | 0.55 | 7.14 |  |  |  |
| Cc1c(C(=O)O)c(O)cc2c1C(=O)c1c(O)c([C@@H]3O[C@H](CO)[C@@H](O)[C@H](O)[C@H]3O)c(O)c(O)c1C2=O [compound 1770] | 0.57 | 0.54 | 10.00 |  |  |  |
| NCCC(=O)N[C@@H](Cc1cnc[nH]1)C(=O)O [compound 1771] | 0.72 | 0.71 | 10.00 |  |  |  |
| Cc1cc(C2(c3cc(C)c(O)c(CN(CC(=O)O)CC(=O)O)c3)OC(=O)c3ccccc32)cc(CN(CC(=O)O)CC(=O)O)c1O [compound 1773] | 0.67 | 0.62 | 10.00 |  |  |  |

Source: patent publication US6203976A, “Methods of preparing compositions comprising chemicals capable of transcriptional modulation” (OSI Pharmaceuticals, Inc., priority 1994, dated 2001)
